The values that follow come from US20230041980A1, “METHOD OF PROTECTING A RESPIRATORY TRACT OR A LUNG FROM DAMAGE, METHOD OF PROTECTING A LUNG FROM PRESSURE DAMAGE INDUCED BY A VENTILATOR, METHOD OF SUPPRESSING SPREAD OF INFECTION WITH VIRUSES OR BACTERIA THAT CAUSE PNEUMONIA IN PULMONARY BRONCHIAL EPITHELIAL CELLS OR ALVEOLAR EPITHELIAL CELLS, AND …” (NEXT21 KABUSHIKI KAISHA, priority 2020, published 2023).

Molecules are shown by their SMILES.

Assay [1] deals with TGF-β1. The experiment in a line: TGF-β1 induced by homogenized cell lysate (ELISA). It is filed as cell-based. As to conditions: lysate homogenized in 10% aqueous trehalose vs saline; RAW264.7 cells, 8 hours; acid-treated medium; FIG. 7D. The protocol: Moreover, RAW264.7 cells cultured in a 225-cm^2 flask were homogenized in a physiological saline solution (saline) or a 10% aqueous solution of trehalose (trehalose) using a homogenizer, and cell lysate was thus prepared. The above-mentioned cell lysate was added to RAW264.7 cells that were being cultured in 6 wells, and the cells were cultured for another 8 hours. Then, the culture medium was collected. The culture medium was treated with acid, and then TGF-β1 in the culture medium was measured using ELISA (manufactured by R&D Systems).
In the above-mentioned tests, the cell lysate obtained through homogenization using a homogenizer was used as a model of cell disruption caused by damage (including a surgical operation).
(An ELISA detects its analyte on a solid surface through an enzyme-linked reagent.)

Assay [2] has as its system prostaglandin E2. Description: Prostaglandin E2 induced by homogenized cell lysate (EIA). It is filed as cell-based. As to conditions: lysate homogenized in 10% aqueous trehalose vs saline; RAW264.7 cells, 8 hours; FIG. 7C.
Assay [3] has as its system Asthma model mice. The experiment in a line: Airway resistance and compliance of OVA asthma model mice. The assay is classed as in vivo, BALB/c mice. As to conditions: versus amount of muscarine receptor stimulant, inhalation, compared with OVA/OVA. The protocol:
(§1) Asthma model mice were produced using BALB/c mice (8 to 10 weeks old) and ovalbumin (OVA) serving as an antigen, and examinations were conducted by administering trehalose by inhalation. On the first day and the fourteenth day, a physiological saline solution or OVA was intraperitoneally administered. 20 micrograms of OVA was administered to one mouse using aluminum hydroxide as an adjuvant. From the twenty-seventh day to the thirty-first day, 10% trehalose or distilled water was administered by inhalation for 20 minutes every day. Moreover, from the twenty-eighth day to the thirtieth day, a physiological saline solution or 1% OVA was administered by inhalation for 20 minutes, 1 to 1.5 hours after the above-mentioned inhalation. On the thirty-second day, evaluation was conducted using an assay system for evaluating allergic airway inflammation and hyperresponsive airway.
The airway resistance and the compliance of the model mice of Example 1 were measured. […] On the other hand, FIGS. 2A and 2B also show the results of the experiment in which lactose was used instead of trehalose (OVA/OVA+Lac).

Assay [4] concerns TNF-α. The experiment in a line: TNF-α induced by heat-shocked dead cell solution (ELISA). It is filed as cell-based. As to conditions: 10% aqueous trehalose vs saline added to cell solution (53° C. 10 minutes); RAW264.7 cells, 8 hours; FIG. 7E. The protocol:
Moreover, RAW264.7 cells cultured in a 225-cm^2 flask were collected, and heat shock was applied to the cells at 53° C. for 10 minutes. Then, the cells were left to stand at 37° C. for 5 hours to induce cell death, and the resulting solution was used as a cell solution. Thereafter, a physiological saline solution (saline) or a 10% aqueous solution of trehalose (trehalose) was added to the cell solution, and the resulting solution was treated on ice for 30 minutes. The above-mentioned cell solution was added to RAW264.7 cells that were being cultured in 6 wells, and the cells were cultured for another 8 hours. Then, TNF-α was measured using ELISA (manufactured by R&D Systems).
In this test, the cell solution including dead cells induced by heat shock was used as a model of cell disruption caused by a burn.

Assay [5] deals with oral epithelial cell line (Ca9-22). The experiment in a line: LIVE/DEAD assay after drying stimulus. It is filed as cell-based. As to conditions: 7.5% trehalose pretreatment 15 minutes, dried 7 minutes, FIG. 8A.
The test system of assay [6] is Asthma model mice. Description: Numbers of inflammation-inducing cells in bronchoalveolar lavage fluid. As to conditions: inhalation; compared with OVA/OVA; FIG. 4. It is filed as in vivo, BALB/c mice. The protocol: as §1, with “airway. Bronchoalveolar lavage was performed on the model mice of Example 1, and the numbers of various cells obtained through the bronchoalveolar lavage were compared and examined. It should be noted that, in this example, 0.5 mL of a physiological saline solution containing 50 μg of ovalbumin (OVA) and 1 mg of aluminum hydroxide gel serving as an adjuvant was administered to OVA-administration mice (OVA/OVA) […]. […]” for “airway.”

Assay [7] deals with IL-4. The experiment in a line: IL-4 level in bronchoalveolar lavage fluid (ELISA). It is filed as in vivo, BALB/c mice. As to conditions: OVA/OVA+Treh vs OVA/OVA, FIG. 5A. The protocol:
as §1, with “airway. Bronchoalveolar lavage was performed on the model mice of Example 1, and the numbers of various cells obtained through the bronchoalveolar lavage were compared and examined. […] The cytokine levels in the bronchoalveolar lavage fluids obtained in Example 4 were measured using an ELISA measurement kit. […] It should be noted that interferon (IFN-γ) was not detected from any of the groups. […]” for “airway.”

As to `OC[C@H]1O[C@H](O[C@H]2O[C@H](CO)[C@@H](O)[C@H](O)[C@H]2O)[C@H](O)[C@@H](O)[C@@H]1O` [trehalose], in assay [1], the “TGF-β1 level induced by cell lysate” value is reported as “significantly reduced”. Besides, in assay [2], the “prostaglandin E2 level induced by cell lysate” value was “significantly reduced”. Besides, the airway resistance entry in assay [3] (FIG. 2A) is listed as “significantly reduced the airway resistance”. The compliance result in assay [3] (FIG. 2B) is “significantly increased the compliance”. Also, the “TNF-α level induced by heat-shocked cell solution” value in assay [4] is “significantly reduced”. For the same molecule, in assay [5], the “cell death caused by drying stimulus (LIVE/DEAD assay)” value is listed as “suppresses cell death caused by drying stimulus”. In addition, the “numbers of inflammation-inducing cells in bronchoalveolar lavage fluid (Total, Mo, Ly, Eo, Nt)” value in assay [6] is reported as “significantly reduced cell release”. In addition, the “IL-4 level in bronchoalveolar lavage fluid” value in assay [7] was “significantly suppress the expression of cytokines”.
